Target: T1, steroid sulfatase (STS) (Homo sapiens, UniProt P08842)
T1 sequence (P08842 22-583): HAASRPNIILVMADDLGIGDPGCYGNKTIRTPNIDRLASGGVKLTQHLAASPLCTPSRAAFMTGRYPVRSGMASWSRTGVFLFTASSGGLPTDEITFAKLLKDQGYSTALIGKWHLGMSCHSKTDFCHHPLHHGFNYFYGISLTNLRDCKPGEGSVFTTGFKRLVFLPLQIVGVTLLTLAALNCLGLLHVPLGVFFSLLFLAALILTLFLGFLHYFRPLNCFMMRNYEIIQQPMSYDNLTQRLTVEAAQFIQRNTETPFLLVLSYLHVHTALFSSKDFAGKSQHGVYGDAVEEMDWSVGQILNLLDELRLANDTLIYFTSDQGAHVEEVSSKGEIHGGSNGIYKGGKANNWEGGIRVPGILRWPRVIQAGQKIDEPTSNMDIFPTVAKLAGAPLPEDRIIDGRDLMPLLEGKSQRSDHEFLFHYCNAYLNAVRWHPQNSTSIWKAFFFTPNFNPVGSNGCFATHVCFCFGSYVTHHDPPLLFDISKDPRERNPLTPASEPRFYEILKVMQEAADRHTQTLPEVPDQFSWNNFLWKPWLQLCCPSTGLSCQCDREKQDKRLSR
Assay: radiometric sulfatase assay, intact JEG-3 monolayer
Format: cell-based
Conditions: read-out: [drawing 5]; [6,7-3H]oestrone sulfate substrate, 1 h

IC50: > 10 µM
SMILES: CN(C)S(=O)(=O)Oc1ccc(C(c2ccc(C#N)cc2)n2cncn2)cc1Br (racemic) [compound 42, 2-Bromo-4-((4-cyanophenyl)(1H-1,2,4-triazol-1-yl)methyl)phenyl dimethylsulfamate]
